Measurements published in ChEMBL document CHEMBL3507680, “University of Dundee, Gates Library screen for HepG2 cell viability”.

Experiment: Human HepG2 cell viability assay in 384 well format
Type: toxicity, cell-based
Set-up: dose 125 nL, time 70.5 hour; concentration not given beside the values
Conditions: HepG2 cells, read-out: Inhibition

SMILES | cytotoxicity at 70.5 h [%]
CC1(C)Oc2ccc(S(=O)(=O)NCCCn3ccnc3)cc2NC1=O | 28.6
C[C@@H]1C[C@@H]2CCN(C(=O)c3cnccn3)C[C@H]2O1 | -0.399
CCn1nnc2c1C(COC)CN(C(=O)Cc1cccs1)C2 (configuration not stated) | -7.34
c1cnc(N2C[C@H]3CCN(c4cccnc4)C[C@H]3C2)nc1 | -6.6
COCCO[C@@H]1CCN(C(=O)c2ccc(C)o2)[C@@H]1Cc1cnn(C)c1 | -2.12
Cc1noc([C@H]2CC[C@@H]3[C@@H](CCN3S(C)(=O)=O)O2)n1 | 1.24
Cc1cccc(CN2CC[C@@H]3[C@@H]2CCN3C(=O)c2cnoc2C)n1 | 0.0209
CC(C)NC(=O)N1CCN(C(=O)N(C)C)CC2(CC(=O)N(C)C2)C1 (configuration not stated) | -6.79
CCC1=N[C@@]2(CC[C@@H]3CN(C(=O)NC(C)C)C[C@@H]32)C(=O)N1C | -1.59
CC1CCc2nn(CCNC(=O)C3CCCC3)c(=O)cc2C1 (configuration not stated) | -3.14
CS(=O)(=O)N1CC(c2nc(N)ncc2-c2ccc(F)cc2)C1 | -2.15
CNC(=O)C1(CCCc2ccccn2)CN(Cc2scnc2C)C1 | 27.6
COCCNc1ccc(CC2CCNC2)cn1 (configuration not stated) | -5.62
CC(=O)N1CC(c2n[nH]c3ncccc23)C1 | 28.9
Cc1cc(N2CCN(C(=O)c3cccnc3)CC2)nc(C)n1 | -2.72
O=C(NCCO)c1sc2ncccc2c1C1CN(C2CCCC2)CCO1 (configuration not stated) | -3.18
Cc1nccn1CC1CCCN(S(=O)(=O)c2cnn(C)c2)C1 (configuration not stated) | -2.81
Fc1cccc(Oc2nccnc2C2CCN(C3CCOCC3)CC2)c1 | 0.625
O=C(C1CC1)N1C[C@H]2CCCN(S(=O)(=O)c3ccc(Cl)s3)[C@H]2C1 | -0.267
Cc1cnc2[nH]c(C(F)(F)F)c(CN3CCSCC3)c2c1 | -0.92
Cc1cc(C)n(CC(=O)N2CCCC(c3cc4cccnc4[nH]3)C2)n1 (configuration not stated) | -3.24

SMILES | cytotoxicity at 70.5 h [%]
CC(C)C(NC(=O)c1cnc(N2CCOCC2)nc1)c1cccs1 (configuration not stated) | 7.3
COCCNc1ccc(CC2CCCNC2)cn1 (configuration not stated) | -7.04
CCn1nc(C)c(-c2cncn2Cc2ccccc2CN(C)C)c1C | -3.79
Cc1ccnn1CCC(=O)N1CCCC1c1cc2cccnc2[nH]1 (configuration not stated) | 1.14
O=C(CO[C@@H]1CC[C@H]2[C@H]1OCCN2CC1CCOCC1)N1CCCC1 | -0.662
CCN1CC2(CC1=O)CN(Cc1cnn(C)c1)CCN(C(=O)C(C)C)C2 (configuration not stated) | -4.6
CCc1ccc(CN2CCC3(CC2)CNC(=O)CO3)o1 | -3.42
Cc1cccc(CN2C(=O)CO[C@@H]3CN(Cc4nccn4C)C[C@H]32)c1 | -3.81
Cc1cccc(CN2C(=O)CO[C@@H]3CN(CCO)C[C@H]32)c1 | -3.53
CC(C)Nc1ccc2nc(C3CCN(C(C)C)CC3)nn2c1 | -2.64
O=C(Nc1cnccn1)[C@H]1COC[C@H]2CN(C3CCCC3)C[C@H]21 | -2.04
CNC(=O)CC1CC2(CCN(Cc3nccs3)CC2)c2ccccc21 (configuration not stated) | 0.687
CO[C@@H]1CC[C@H]2[C@H]1OCCN2CC1CCOCC1 | -2.79
CC(C)Nc1ncnc2c1CCN(C(=O)Cc1ccccn1)CC2 | 26.6
O=S(=O)(C1CC1)N1CCOCC2(CCN(c3ccccn3)C2)C1 (configuration not stated) | 36.2
CCN1CC2(CCNCC2)COc2ccccc2S1(=O)=O | -15.6
c1cnc(NCc2ncn3c2CN(Cc2cccnc2)CCC3)nc1 | -2.74
Cn1cc(C(=O)NCc2cn3c(n2)CN(Cc2ccccn2)CC3)cn1 | -1.02
Cc1cccc(CN2CC[C@@H]3[C@@H]2CCN3C(=O)c2ccno2)n1 | -4.67
CN(C)C(=O)COC[C@H]1CC[C@@H]2[C@@H](CCN2Cc2ccccn2)O1 | -7.44
c1cc(CN2C[C@@H]3COC[C@]3(COCC3CC3)C2)ccn1 | 11.6
